Columns and labels:
TDAG8 [1] = target: T1, TDAG8 (Homo sapiens, UniProt Q8IYL9); assay: Binding of phospholipids to TDAG8
T1 construct: expressed in transfected cells
Protocol: To characterize the binding of SPC and LPC to GPR4 and TDAG8, we conducted radioligand binding assays. CHO cells were chosen for GPR4 binding assays, since HEK293 cells express relatively high levels of endogenous GPR4. CHO cells stably transfected with empty vector or GPR4 were serum starved for 20 h, then collected after exposure to 2 mM EDTA in PBS. The pelleted cells were stored at −80° C. until use. Binding assays were performed essentially as described previously (Xu et al. (2000) Nat Cell Biol 2, 261-267), except binding was performed at 4° C. Briefly, frozen cells (10^6 cells/ml) were homogenized in a binding buffer. Assays were performed in 96-well plates in triplicate with 100 μl cell homogenate (equivalent to 10^5 cells/well). Different amounts of [^3H]SPC or [^3H]16:0-LPC were added to the cell homogenates in 50 μl of binding buffer, in the presence or absence of cold SPC or 16:0-LPC, or other competitors. The plates were incubated at 4° C. for 120 min, unless otherwise indicated. Cell-bound [^3H]SPC or [^3H]LPC was collected onto a filter (Printed Filtermat A, Wallac, Gaithersburg, Md.) using an automated cell harvester (HARVESTER 96, Tomtec, Orange, Conn.). Specific binding was calculated by subtraction of nonspecific binding (binding detected in the presence of 100-fold excess unlabeled SPC or 16:0-LPC) from the total binding.
Using functional and binding assays, we have identified the ligands for TDAG8.

TDAG8 [2] = target: T1, TDAG8; assay: MAP kinase reporter system in TDAG8 co-transfected HEK293 cells; assay type: cell-based; settings: 1-5 μM
Excerpt: To further explore the TDAG8-mediated cellular response to SPC, MAP kinase activation was examined using the MAP kinase reporter system from Stratagene.

OGR1 = target: T2, OGR1 (Homo sapiens, UniProt Q15743); assay: MAP kinase reporter system in OGR1 co-transfected cells; assay type: cell-based
T2 construct: expressed in transfected cells
T2 sequence (Q15743 whole entry, species assumed): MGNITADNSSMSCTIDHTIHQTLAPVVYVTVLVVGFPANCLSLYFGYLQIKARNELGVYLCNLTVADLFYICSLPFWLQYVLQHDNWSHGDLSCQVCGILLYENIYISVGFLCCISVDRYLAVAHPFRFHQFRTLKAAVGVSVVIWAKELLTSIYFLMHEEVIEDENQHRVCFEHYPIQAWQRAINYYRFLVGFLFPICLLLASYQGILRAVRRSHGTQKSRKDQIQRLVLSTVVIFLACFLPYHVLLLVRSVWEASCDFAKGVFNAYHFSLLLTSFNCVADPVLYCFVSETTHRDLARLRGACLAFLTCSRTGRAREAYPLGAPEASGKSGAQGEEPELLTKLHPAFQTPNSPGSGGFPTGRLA

GPR4 [3] = target: T3, GPR4 (Homo sapiens, UniProt P46093); assay: Transwell cell migration of GPR4-transfected HEK293 cells; assay type: cell-based; settings: 0.2 μM
T3 construct: were used to generate full length GPR4, which was digested with EcoRI and Xba I and cloned into the pBs3HA vector; expressed in transfected cells
T3 sequence (P46093 whole entry): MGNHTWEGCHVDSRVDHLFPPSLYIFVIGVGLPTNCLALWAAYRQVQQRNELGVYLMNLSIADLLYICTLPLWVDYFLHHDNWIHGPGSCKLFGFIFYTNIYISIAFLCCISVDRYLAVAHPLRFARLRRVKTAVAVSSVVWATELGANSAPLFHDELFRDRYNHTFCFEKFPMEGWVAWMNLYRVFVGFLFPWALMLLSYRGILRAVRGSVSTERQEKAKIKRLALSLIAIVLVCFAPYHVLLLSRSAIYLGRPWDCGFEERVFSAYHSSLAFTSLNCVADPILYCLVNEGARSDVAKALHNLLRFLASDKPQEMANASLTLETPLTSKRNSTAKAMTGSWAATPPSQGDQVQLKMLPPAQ
Protocol: To determine whether GPR4 and/or TDGA8 can mediate the LPC-induced cell migration, we transfected HEK293 cells with GPR4 or TDAG8. Cell migration was performed in Transwell apparatus. GPR4-transfected HEK293 cells, and TDAG8-transfected HEK293 cells migrated to the low-phase of the membrane and the lower chamber of the Transwell in response to SPC and LPC, used at 0.2 μM.

TDAG8 [4] = target: T1, TDAG8; assay: TDAG8 receptor internalization; assay type: cell-based
Excerpt: G protein coupled receptors undergo agonist-dependent desensitization and internalization.

GPR4 [5] = target: T3, GPR4; assay: ERK MAP kinase activation (phospho-ERK Western blot) in GPR4-infected Swiss 3T3 cells; assay type: cell-based; settings: for concentration at which ERK activation was evident / time point at which ERK activation was evident: GPR4-infected Swiss 3T3 cells; for GPR4-dependent ERK activation (in words): GPR4-ires-GFP vs GFP Swiss 3T3 cells, SPC and LPC 100 nM
How it was run: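 Swiss 3T3 cells transduced with MSCV GPR4-ires-GFP or empty vector, FACS-sorted for GFP, serum-starved overnight, then stimulated with lipids in DMEM. Phospho-ERK1/2 detected by Western blot with ECL, normalised to total ERK; some cells pretreated with 100 ng/ml PTX for 12–16 h before SPC or LPC.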

TDAG8 [6] = assay: TDAG8 expression in Jurkat cells by real-time quantitative RT-PCR; assay type: cell-based, human; settings: 0.1 and 1 μM LPC, up to 24 hours
Protocol: Jurkat cells were treated with 0.1 and 1 μM LPC for various times (1, 2, 6, and 24 hours). At each time point, cells were collected and total RNA was extracted. Real-time quantitative PCR was utilized to determine relative amounts of GPR4 (shown in FIG. 1A and TDAG8 (shown in FIG. 1B) expressed under each condition. All PCR reactions were performed in triplicate.
In one scheme, total RNA is extracted from tissues using the RNeasy Total RNA System (Qiagen, Valencia, Calif.). One to five micrograms of total RNA are reverse transcribed using Superscript II RT (Gibco BRL, Rockville, Md.). Eight nanograms of derived cDNA are used as a template for real-time quantitative SYBR Green I PCR. Specific primers, that have already been established and used under these same conditions, are used for each individual receptor, with GAPDH being amplified in a separate tube as a housekeeping gene. The primers for GPR4 (Genbank accession number U2105 1) are 5′-[…]-3′ [SEQ ID NO. 1] and 5′-TCCAGTTGTCGTGGTGCAG-3′ [SEQ ID NO. 2] […] Amplified product is detected by measurement of SYBR Green I, which is added to the initial reaction mixture. […] The results are expressed as a fold-change in receptor expression levels compared to a baseline sample.
Jurkat cells were treated with 0.1 and 1 μM LPC for up to 24 hours followed by expression analysis of GPR4 and TDAG8 levels with real-time quantitative RT-PCR.

T1 sequence (Q8IYL9 whole entry): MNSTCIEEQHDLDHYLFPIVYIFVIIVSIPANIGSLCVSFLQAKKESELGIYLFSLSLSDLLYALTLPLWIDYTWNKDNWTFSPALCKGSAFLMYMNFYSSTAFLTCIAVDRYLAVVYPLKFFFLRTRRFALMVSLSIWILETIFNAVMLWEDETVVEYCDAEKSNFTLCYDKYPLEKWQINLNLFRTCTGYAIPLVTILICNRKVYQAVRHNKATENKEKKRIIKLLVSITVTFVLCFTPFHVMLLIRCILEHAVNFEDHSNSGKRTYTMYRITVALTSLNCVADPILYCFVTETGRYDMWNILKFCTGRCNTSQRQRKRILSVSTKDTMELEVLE

| Compound | binding to TDAG8 (TDAG8 [1]) | activation of p42/44 MAP kinase (reporter luciferase activity) (TDAG8 [2]) | MAP kinase activation (reporter) (OGR1) | cell migration in Transwell (in words) (GPR4 [3]) | TDAG8 receptor internalization (TDAG8 [4]) | concentration at which ERK activation was evident (GPR4 [5]) | time point at which ERK activation was evident (GPR4 [5]) | GPR4-dependent ERK activation (in words) (GPR4 [5]) | regulation of TDAG8 expression (TDAG8 [6]) |
| --- | --- | --- | --- | --- | --- | --- | --- | --- | --- |
| CCCCCCCCCCCCC/C=C/[C@@H](O)[C@@H](N)COP(=O)([O-])OCC[N+](C)(C)C [SPC, Sphingosylphosphorylcholine] | able to bind to TDAG8 | induced activation of p42/44 MAP kinase | only achieved by SPC | increased cell migration | induced TDAG8 receptor internalization | approximately 10 nM | 1 min | enhanced ERK activation |  |
| lysophosphatidylcholine [LPC] | able to bind to TDAG8 | induced activation of p42/44 MAP kinase | weakly inhibitory | increased cell migration | not | ~100 nM | 5 min | enhanced ERK activation | time- and dose-dependent up regulation |
